Marks after values point to notes of the source that are not given here.
How the values were obtained:
cockroach = assay: Bioassays for cockroach attraction of attractants sorbed into thermoplastic polymers; format: in vivo
Source text: To alleviate the reactivity with the carrier polymers, we attempted to load active compounds into a series of thermoplastic polymers including urethanes and synthetic rubbers, based on the behavior of the active compounds as plasticizers. […] Propyl propanoate, methyl hexanoate, and methyl tiglate were loaded into a series of thermoplastic granulated feed materials, including 4-(1,1,3,3-tetramethylbutyl) with ethylene-5-ethylidenebicyclo[2.2.1]hept-2-ene-propene thermoplastic synthetic rubber (Santopren™ 203-40). Santoprene™ is a thermoplastic elastomer (TPE that is a mixture of in-situ cross linking of EPDM rubber and polypropylene compounds). Because of the longer life of Santopren™ in both extreme hot and cold environments, it is often preferred over the use of rubber. Pellethane™ 2102-55D is a polyester polycaprolactone polyurethane. Methyl hexanoate and methyl tiglate were sorbed using heat and pressure (60° C., 40 psi, 30 min) into the Santoprene® and were effective in bioassays for cockroach attraction. […] Loading rates of active compounds into the Santoprene®, using slightly elevated temperature (60° C.) and 40 psi pressure, were 8-12% by wt for the two compounds.

[1] = system: Male cockroaches (Blattela germanica); assay: Y-tube olfactometer bioassay, test compound in mineral oil on filter paper; format: in vivo; details: for Percent Response: 0.5% w/v solution in mineral oil, mean of 3 replicates, 65% or more = significantly attractive (*), 35% or less = significantly repellent (**)
Source text: The German cockroach (Blattela germanica) is one of the most difficult cockroach species to control in homes and was used to illustrate the invention. […] Since the cockroaches never contact the test sample, their response is strictly to the molecules in the air stream.
Olfactometer Bioassay: The Y-tube bioassay apparatus was similar to that described by Vander Meer et al. (J. Chem. Ecol., 14: 825-838 (1988)). Compressed air (breathing-air quality) was passed into the two choice arms at 0.2 l/min for a total flow of 0.4 l/min. Flow rates were adjusted and controlled by two flow meters (Omega Engineering, Inc.). All tubing carrying the air was either copper or Teflon. Prior to evaluating treatment samples, a positive standard was put through the bioassay procedure. […] Test samples (10.0 μl) and the solvent blank (mineral oil, 10.0 μl) were applied to filter paper strips (0.3×1.0 cm, Whatman No. 1) and then each was placed into one of the two choice arms. Male cockroaches (Blattela germanica) were prepared for their introduction into the olfactometer by placing them in a Teflon tube (3 cm×0.8 cm) that had one end blocked with a piece of copper mesh screen. The open end of tube was closed with a lightly attached piece of tape. The cockroaches were introduced individually by removing the tape and quickly inserting the Teflon tube into the entrance arm of the olfactometer. […] The initial choice of the cockroach was recorded. The cockroach was removed and the process was repeated 10 times with the same test and blank samples. The 10 choices usually required less than 5 minutes to complete. After each set of 10 cockroaches had made their choice, the olfactometer was rinsed with acetone, dried, and reassembled for the next test. Each sample was retested with the same cockroaches, but with the sample and control in reverse positions. The sum of the results from the two tests represented one replicate. This procedure minimized bias inherent in the apparatus. A null hypothesis of equal numbers of cockroaches in each arm was tested with chi-square analysis. […] Results in-between were neutral.
The diameter of the Y part of the olfactometer provided a close fit for the cockroach, thus keeping it in the center of the walkway.

[2] = Release rate of attractants from sustained release delivery systems; format: physicochemical
Source text: Several secondary release rate control systems were developed. The first was a sachet that can contain the above polymer releasing system. This sachet can be either polyvinylidine chloride (PvdC) barrier film (e.g., Saranex™) enclosed in a thermally sealed metalized polyethylene container to eliminate release of active compounds, or a metalized polyethylene sachet with a removable seal that covers a vapor diffusion controlling orifice which when removed begins the release process from the internal polymer/carrier, or metalized polyethylene sachet which contains a small vial with a vapor controlling orifice. In the case of the Saranex™ sachet, the actual porosity of the Saranex™ control release is based on type of PVdC and thickness of the film. In the case of the metalized polyethylene sachet and internal polymer/carrier, a specific orifice size controlled the rate of diffusion of the active from the device, as shown in FIG. 4. An additional means of containing and reducing the release of the liquid active compounds and providing a solid support for use in the above delivery system involved sorbing the active compounds into an inert absorbent such as Membrana GmbH's expanded microporous polyolefin Accurel® MP100 which are granular or pelletized polyethylenes that have 10-50 μm air pockets throughout and can contain up to 90% of their volume in active compounds . MP100 was easily loaded with 80% by wt active ingredient due to its porosity. […] Thus, placement into the metalized polyethylene sachet with its diffusion regulating orifice was required.
Active compounds (1 gm active in Accurel® MP100) were sealed within the metalized polyethylene sachet, and a 0.5 mm hole placed into the film, and sealed until use with a metalized tape. Release rates for propyl propanoate, methyl tiglate, and butyl hexanoate were calculated at 15.5, 11.4, and 4.8 mg/day, respectively. Longevity of this system was calculated to be 64, 87, and 208 days, respectively.
Release rates for the thermoset urethane (Flexane® 80P) and synthetic rubbers systems ranged from 0.055 to 0.2 mg/cm^2/day, depending on durometer/hardness that is a measure of polymer crosslinking. Best results were obtained at durometer/hardness levels above D30. Release rates for the Saranex system without the release control provided by the metalized polyethylene and diffusion control orifice were 187, 236, and 7 mg/day for propyl propanoate, methyl tiglate, and butyl hexanoate, respectively.

[3] = system: German roaches (B. germanica); assay: Two-harborage arena bioassay of sustained release polymer formulations; format: in vivo; details: counted after 24 hours
Source text: Evaluation of sustained release formulations: Three cockroach attractants (methyl tiglate, butyl heptanoate, and propyl proprionate) were formulated in one or more polymer formulations (Urethane, Pellethane, Santoprene, and/or Polyethylene) as indicated in Table 4.A sweater box (1.5×2.0×0.5 ft) provided the test arena. The sides of the arena were coated with a blend of mineral oil and Vaseline petroleum jelly. The tops of two 8 oz paper ice cream cups were tapped to the arena floor with masking tape and, prior to the addition of the test cockroaches, inverted cups without holes were fixed to the tapped lids. Twenty-five laboratory reared late stage nymphs or adult male German roaches (B. germanica), starved for 72 hrs, were added to the arena and allowed to calm down (ca. 1 hour). The starting inverted ice cream cups were carefully removed and each ice cream cup top was then supplied with a water tube (1.5 ml scintillation vial with water and stoppered with cotton), one lab chew food pellet, and either a test attractant polymer formulation or the corresponding polymer blank control. […] The cups were oriented so that the holes were facing each other. The number of roaches that sought harborage in the cups was counted after 24 hours by plugging the entrance holes with cotton, the roaches inside euthanized, and the numbers in each cup counted.

[4] = sorbed into Santoprene (60° C., 40 psi, 30 min)
[5] = 1 gm active in Accurel MP100 in metalized polyethylene sachet with 0.5 mm hole
[6] = 1 gm active in Accurel MP100 in metalized polyethylene sachet with 0.5 mm hole, FIG. 3
[7] = Saranex system without metalized polyethylene and diffusion control orifice

Structure (SMILES) | effect in bioassays for cockroach attraction (in words) (cockroach; loaded into Dow Pellethane) | effect in bioassays for cockroach attraction (in words) (cockroach; [4]) | Percent Response [1] | Longevity of the release system [2, 5] | Release rate [2, 6] | Release rate [2, 7] | attraction to treatment harborage versus polymer blank control (in words) ([3]; formulated in urethane) | percent of responding cockroaches attracted ([1]; three concentrations (0.25 to 0.75) in mineral oil, N=1, FIG. 8) | attraction to treatment harborage versus polymer blank control (in words) ([3]; formulated with Santoprene)
CCCOC(=O)CC [Propyl Propanoate] | neither of these systems worked well | neither of these systems worked well | 70.0* % | 64 days | 15.5 mg/day | 187 mg/day | significant attraction and subsequent aggregation |  | 
C/C=C(\C)C(=O)OC [methyl tiglate, methyl ester of tiglic acid (trans-2-methyl-2-butenoic acid (methyl tiglate))] | worked less well | effective | 80.0% | 87 days | 11.4 mg/day | 236 mg/day |  | ≥ 65% | significant attraction and aggregation

From patent publication US8273340B2, “Methods and compositions for attracting or repelling cockroaches” (The United States of America, as represented by the …, priority 2008, dated 2012)
